According to patent US20260139254A1, “INTERFERING RNA FOR INHIBITING TOP1 GENE EXPRESSION AND USE THEREOF” (JENKEM TECHNOLOGY CO., LTD. (BEIJING), priority 2022, published 2026):

Key:
[1] = system: TOP1 mRNA; experiment: Dose-dependence of siTOP1-1604 on TOP1 mRNA in PC-3 cells (qPCR); assay type: cell-based, human; conditions: for Relative expression level of TOP1, mean value: 24 h, siNC = 100.00
Protocol: (§1) A transfection system was prepared as follows on the day of transfection: siTOP1-1604 was diluted with an appropriate amount of Opti-MEM culture medium; Lipofectamine™ RNAiMAX (Lipo) transfection reagent was diluted with another appropriate amount of Opti-MEM culture medium and left to stand at room temperature for 5 min; and the two dilutions were uniformly mixed, left to stand at room temperature for 5 min, and then added to 24-well cell culture plates at 50 μL/well. PC-3 human prostate cancer cells were added to one of the 24-well cell culture plates at 4×10^5 cells/well, the culture medium being 450 μL of F12K containing 10% FBS; HCT116 human colon cancer cells were added to the other of the 24-well cell culture plates at 3.5×10^5 cells/well, the culture medium being 450 μL of IMDM containing 10% FBS. The cells were uniformly mixed with the siRNA. The final transfection volume was 500 μL, and the working concentrations of the siRNA were 10, 1.67, 0.27, 0.046, 0.0077, 0.0013, and 0.00021 nM. The control groups were Blank (Opti-MEM at the equal volume), Lipofectamine™ RNAiMAX (Lipo) transfection reagent, as well as 10 nM of siNC.
(§2) After 24 h of transfection, the cells were collected. The total cellular RNA was extracted according to the method in Example 2, and the level of TOP1 mRNA was detected. […] Nonlinear fitting was performed on the qPCR results using Graphpad software and IC50 of siTOP1 was calculated.

[2] = system: TOP1 mRNA; experiment: Dose-dependence of siTOP1-1604 on TOP1 mRNA in HCT116 cells (qPCR); assay type: cell-based, human; conditions: for Relative expression level of TOP1, mean value: 24 h, siNC = 100.00
Protocol: as §1, §2

## siTOP1-1604: siRNA targeting TOP1; target SEQ ID NO: 9, sense strand SEQ ID NO: 24, antisense strand SEQ ID NO: 39 (sense GUGUGGACAAGAUCCGGAAUU; antisense UUCCGGAUCUUGUCCACACUU; described as unmodified parent siRNA, further chemistry not given here)
[1]; PC-3, 0.00021 nM
  Relative expression level of TOP1, mean value: 125.48
[1]; PC-3, 0.0013 nM
  Relative expression level of TOP1, mean value: 96.21
[1]; PC-3, 0.0077 nM
  Relative expression level of TOP1, mean value: 122.71
[1]; PC-3, 0.046 nM
  Relative expression level of TOP1, mean value: 47.64
[1]; PC-3, 0.27 nM
  Relative expression level of TOP1, mean value: 24.94
[1]; PC-3, 1.67 nM
  Relative expression level of TOP1, mean value: 21.05
[1]; PC-3, 10 nM
  Relative expression level of TOP1, mean value: 19.66
[1]; PC-3, 24 h, relative to siNC, nonlinear fit of qPCR results
  IC50: 0.075 nM
[2]; HCT116, 0.00021 nM
  Relative expression level of TOP1, mean value: 73.06
[2]; HCT116, 0.0013 nM
  Relative expression level of TOP1, mean value: 74.72
[2]; HCT116, 0.0077 nM
  Relative expression level of TOP1, mean value: 54.01
[2]; HCT116, 0.046 nM
  Relative expression level of TOP1, mean value: 17.23
[2]; HCT116, 0.27 nM
  Relative expression level of TOP1, mean value: 7.57
[2]; HCT116, 1.67 nM
  Relative expression level of TOP1, mean value: 7.91
[2]; HCT116, 10 nM
  Relative expression level of TOP1, mean value: 3.98
[2]; HCT116, 24 h, relative to siNC, nonlinear fit of qPCR results
  IC50: 0.006 nM
